The source of these data is patent US20240165135A1, “COMPOSITIONS AND METHODS FOR THE TREATMENT OF CANCER” (The State of Israel, Ministry of Agriculture & Rural …, priority 2021, published 2024).

Common to all, as to assay type: cell-based, Human
Experiment [1] relates to U87 GBM cells. Kind of experiment: XTT cell viability assay on U87. To be noted: 48 hours; Doxorubicin up to 50 μg/mL. As for the experimental part:
Cell cultures—Human glioblastoma A172 (ATCC®CRL-1620™) was cultured in DMEM (01-055-1A, Biological Industries, Israel) and U87MG (U87; ATCC®HTB-14™) in EMEM (01-058-1A; Biological Industries, Israel). Both media were supplemented with 10% fetal bovine serum (FBS, 04-127-1A, Biological Industries, Israel), 1% Pen-Strep, 1% L-Glutamine and 0.02% plasmocin (i.e., complete medium). Cells were incubated at 37° C. in a humidified atmosphere containing 5% CO2—95% air. Serum free media (SFM) was composed of DMEM/F12 (01-170-1A; Biological Industries, Israel), including all the supplements above except for FBS. Neurosphere media for A172 was composed of SFM with 2% B-27; Neurosphere media for U87 was serum-free EMEM without B27. For Glioblastoma stem cells (GSCs) cultures all human materials were used in accordance with the policies of the Henry Ford Hospital Institutional Review Board. Generation of GSCs from fresh GBM specimens and their characterization have been recently described. […]
Cell viability assays—Cells were seeded in 96-well plates at density of 2×10^4 per well (100 μL/well) in SFM (for A172) or complete medium (for U87) and were incubated at 37° C. overnight to allow attachment. […] Absorbance was recorded by a Synergy H1 hybrid reader photometer (BioTek) at 490 nm with 650 nm of reference wavelength. […]
A general note: Tetrazolium dyes change colour on reduction, which living cells bring about.

In experiment [2] the test system is A172 cells. Kind of experiment: Transwell assay, A172 cell invasion. The settings on record: 24 hours; F4 12 μg/mL, F5 10 μg/mL, Doxo 0.5 μg/mL. As for the experimental part: Transwell assay—Cells were seeded in the upper chamber of a 24-well plate containing insert with an 8-μm pore size membrane (BD, Falcon Cat #353097), at a density of 5×10^4 in 250 μL complete medium and were incubated at 37° C. for 60 minutes to recover. Following, cells were treated and incubated for 24 hours followed by viability test with resazurin (AR002, R&D Systems, USA). The inserts were taken out of the medium, the inner part was wiped using a cotton swab to remove the detached cells. The inserts were transferred into a new 24-well plate, fixated using 70% ethanol for 10 minutes and dried for 50 minutes, followed by staining in 400 μL of 0.2% crystal violet, washing with PBS, and drying for 5 minutes. Cells stained underneath the membrane were counted in inverted microscope in 3-5 different fields.

Experiment [3] deals with A172 cells. In words: F-actin staining, confocal imaging of A172 cytoskeleton. To be noted: 24 hours; F4 12 μg/mL, F5 10 μg/mL, Doxo 0.5 μg/mL. The protocol: Cell staining—EasyProbes™ ActinRed 555 Stain was used for F-actin staining and Hoechst 33342 (ABP Biosciences, USA) for nuclei staining, according to the manufacturer's instructions. Briefly, cells were seeded on confocal dishes (D35-20-1.5-N, Cellvis, USA) at a density of 2×10^4 in 500 μL complete medium. Following 24 hours incubation, the indicated treatments at different concentrations were added for additional 24 hours. For the staining process, cells were washed with PBS and fixed with 3.7% formaldehyde solution in PBS and incubated at room temperature for 10 minutes followed by incubation in 0.1% Triton X-100 (T8787; Sigma Aldrich, USA) for 5 minutes, washing with PBS and incubation in 1% BSA (A7284; Sigma Aldrich, USA) solution for 30 minutes. Two drops of EasyProbes™ Actin and of Hoechst were applied to each of the samples for 20 minutes. […] The number of F-actin filaments was quantified as the number of filaments that crosse a line that is drawn electronically across the soma. Percentage of filaments in the different treatments was calculated out of the average number of filaments in the control.

As to `COc1cccc2c1C(=O)c1c(O)c3c(c(O)c1C2=O)C[C@@](O)(C(=O)CO)C[C@@H]3O[C@H]1C[C@H](N)[C@H](O)[C@H](C)O1` [Doxorubicin], the “activity on the U87 cell line” value in experiment [1] was “only moderately active on this cell line”. For the same molecule, in experiment [2], the “reduction of cell invasion relative to vehicle control” value is given as 22.5%. Besides, the “F-actin network / structures” value in experiment [3] was “less pronounced in comparison to that of F4 or F5”.
